# Tests used:
# [1] = tested on: female NMRI-albino mice; experiment: Acute toxicity, intravenous, mice; format: in vivo; settings: within 24 hours
# [2] = Acute toxicity, intravenous, mice; format: in vivo; settings: mouse, in vivo; intravenous, within 24 hours; read-out: Evaluated LD50-range
# [3] = tested on: narcotised guinea pigs; experiment: Blood pressure experiments on guinea pigs, i.v.; format: in vivo, guinea pig
# [4] = tested on: mongrel cats; experiment: Inotropic and heart-circulatory effectiveness on narcotised cats, intravenous; format: in vivo, cat; settings: 6 animals; for blood pressure before / dp/dt (inotropism) before / heart frequency before: before administration
# [5] = tested on: isolated guinea pig hearts; experiment: Experiments on Langendorff hearts (coronary flowthrough, inotropism, frequency); settings: Cavia porcellus, read-out: flowthrough, percentage change with regard to the initial value
# Protocol: After reaching the stationary state in the 30th minute, the hearts were each perfused with 50 ml. tyrode solution with a content of test substance of, in each case, 25 μg./ml. Each test substance was tested on 3-6 hearts.
# In each case, there was measured the inotropism, the flowthrough and the frequency, whereby the values given in Table I are average values of the percentage changes in comparison with the initial values.
structure (smiles),measurement,setting,value
"N#Cc1ccccc1OCC(O)CN[C@H]1CO[C@H]2[C@@H]1OC[C@@H]2O[N+](=O)[O-] (stereo partly drawn) [Example 50, 5-[2-Hydroxy-3-(2-cyanophenoxy)-propylamino]-5-desoxy-1.4;3.6-dianhydro-L-iditol 2-nitrate]",Frequency of death,[1]; 100 mg/kg i.v.,0/3
same,Frequency of death,[1]; 200 mg/kg i.v.,4/6
same,LD50 at 24 h,[2],100 to 200 mg/kg
same,blood pressure after,[3]; 0.25 mg/kg i.v.,39.25 ± 6.97 mm.Hg
same,blood pressure Δ,[3]; 0.25 mg/kg i.v.,-16.25 mm.Hg
same,blood pressure before,"[3]; 0.25 mg/kg i.v., before administration",55.50 ± 7.35 mm.Hg
same,blood pressure after,[3]; 1.00 mg/kg i.v.,31.00 ± 3.94 mm.Hg
same,blood pressure Δ,[3]; 1.00 mg/kg i.v.,-21.50 mm.Hg
same,blood pressure after,[3]; 2.50 mg/kg i.v.,22.75 ± 1.80 mm.Hg
same,blood pressure Δ,[3]; 2.50 mg/kg i.v.,-27.75 mm.Hg
same,blood pressure before,[4]; 0.25 mg/kg i.v.,121.0 mm.Hg
same,dp/dt (inotropism) before,[4]; 0.25 mg/kg i.v.,6533 mm.Hg/sec
same,heart frequency before,[4]; 0.25 mg/kg i.v.,190.7 min⁻¹
same,blood pressure WD,[4]; 0.25 mg/kg i.v.,8.5 min
same,blood pressure after,[4]; 0.25 mg/kg i.v.,108.3 mm.Hg
same,blood pressure Δ,[4]; 0.25 mg/kg i.v.,-12.7 mm.Hg
same,dp/dt (inotropism) after,[4]; 0.25 mg/kg i.v.,6033 mm.Hg/sec
same,dp/dt (inotropism) Δ,[4]; 0.25 mg/kg i.v.,-500 mm.Hg/sec
same,dp/dt WD,[4]; 0.25 mg/kg i.v.,8.2 min
same,heart frequency after,[4]; 0.25 mg/kg i.v.,195.3 min⁻¹
same,heart frequency Δ,[4]; 0.25 mg/kg i.v.,+4.6 min^-1
same,blood pressure WD,[4]; 0.50 mg/kg i.v.,9.8 min
same,blood pressure after,[4]; 0.50 mg/kg i.v.,102.2 mm.Hg
same,blood pressure Δ,[4]; 0.50 mg/kg i.v.,-18.0 mm.Hg
same,dp/dt (inotropism) after,[4]; 0.50 mg/kg i.v.,5133 mm.Hg/sec
same,dp/dt (inotropism) Δ,[4]; 0.50 mg/kg i.v.,-1267 mm.Hg/sec
same,dp/dt WD,[4]; 0.50 mg/kg i.v.,8.2 min
same,heart frequency after,[4]; 0.50 mg/kg i.v.,195.3 min⁻¹
same,heart frequency Δ,[4]; 0.50 mg/kg i.v.,+3.3 min^-1
same,blood pressure WD,[4]; 1.00 mg/kg i.v.,14.8 min
same,blood pressure after,[4]; 1.00 mg/kg i.v.,94.2 mm.Hg
same,blood pressure Δ,[4]; 1.00 mg/kg i.v.,-27.8 mm.Hg
same,dp/dt (inotropism) after,[4]; 1.00 mg/kg i.v.,4200 mm.Hg/sec
same,dp/dt (inotropism) Δ,[4]; 1.00 mg/kg i.v.,-2067 mm.Hg/sec
same,dp/dt WD,[4]; 1.00 mg/kg i.v.,14.8 min
same,heart frequency after,[4]; 1.00 mg/kg i.v.,191.7 min⁻¹
same,heart frequency Δ,[4]; 1.00 mg/kg i.v.,0 min⁻¹
same,blood pressure WD,[4]; 2.50 mg/kg i.v.,> 10 min
same,blood pressure after,[4]; 2.50 mg/kg i.v.,77.5 mm.Hg
same,blood pressure Δ,[4]; 2.50 mg/kg i.v.,-45.8 mm.Hg
same,dp/dt (inotropism) after,[4]; 2.50 mg/kg i.v.,2733 mm.Hg/sec
same,dp/dt (inotropism) Δ,[4]; 2.50 mg/kg i.v.,-3584 mm.Hg/sec
same,dp/dt WD,[4]; 2.50 mg/kg i.v.,> 10 min
same,heart frequency after,[4]; 2.50 mg/kg i.v.,178.7 min⁻¹
same,heart frequency Δ,[4]; 2.50 mg/kg i.v.,-10.3 min⁻¹
"CN(CCCCCc1ccccc1)[C@H]1CO[C@H]2[C@@H]1OC[C@@H]2O[N+](=O)[O-] [Example 23, 5-[N-Methyl-N-(5-phenylpentyl)-amino]-5-desoxy-1.4;3.6-dianhydro-L-iditol 2-nitrate]",activation at 25 µg/mL,[5],156%
"O=[N+]([O-])O[C@H]1CO[C@H]2[C@@H]1OC[C@@H]2NCCc1ccccc1 [Example 27, 5-(2-Phenylethylamino)-5-desoxy-1.4;3.6-dianhydro-L-iditol 2-nitrate]",activation at 25 µg/mL,[5],67.2%
COc1ccc(CCCN[C@H]2CO[C@H]3[C@@H]2OC[C@@H]3O[N+](=O)[O-])cc1OC [31 b],activation at 25 µg/mL,[5],79.4%
"O=[N+]([O-])O[C@H]1CO[C@H]2[C@@H]1OC[C@H]2NCC(O)COc1cccc2ccccc12 (stereo partly drawn) [Example 55, 5-[2-Hydroxy-3-(1-naphthyloxy)-propylamino]-5-desoxy-1.4;3.6-dianhydro-D-glucitol 2-nitrate]",activation at 25 µg/mL,[5],203%
same,blood pressure before,[4]; 0.25 mg/kg i.v.,113.8 mm.Hg
same,dp/dt (inotropism) before,[4]; 0.25 mg/kg i.v.,5633 mm.Hg/sec
same,heart frequency before,[4]; 0.25 mg/kg i.v.,161.7 min⁻¹
same,blood pressure WD,[4]; 0.25 mg/kg i.v.,4.8 min
same,blood pressure after,[4]; 0.25 mg/kg i.v.,107.0 mm.Hg
same,blood pressure Δ,[4]; 0.25 mg/kg i.v.,-6.8 mm.Hg
same,dp/dt (inotropism) after,[4]; 0.25 mg/kg i.v.,5200 mm.Hg/sec
same,dp/dt (inotropism) Δ,[4]; 0.25 mg/kg i.v.,-433 mm.Hg/sec
same,dp/dt WD,[4]; 0.25 mg/kg i.v.,4.2 min
same,heart frequency after,[4]; 0.25 mg/kg i.v.,164.7 min⁻¹
same,heart frequency Δ,[4]; 0.25 mg/kg i.v.,+3.0 min^-1
same,blood pressure WD,[4]; 0.50 mg/kg i.v.,2.8 min
same,blood pressure after,[4]; 0.50 mg/kg i.v.,98.8 mm.Hg
same,blood pressure Δ,[4]; 0.50 mg/kg i.v.,-12.7 mm.Hg
same,dp/dt (inotropism) after,[4]; 0.50 mg/kg i.v.,4667 mm.Hg/sec
same,dp/dt (inotropism) Δ,[4]; 0.50 mg/kg i.v.,-533 mm.Hg/sec
same,dp/dt WD,[4]; 0.50 mg/kg i.v.,5.2 min
same,heart frequency after,[4]; 0.50 mg/kg i.v.,157.3 min⁻¹
same,heart frequency Δ,[4]; 0.50 mg/kg i.v.,+2.0 min^-1
same,blood pressure WD,[4]; 1.00 mg/kg i.v.,5.2 min
same,blood pressure after,[4]; 1.00 mg/kg i.v.,96.8 mm.Hg
same,blood pressure Δ,[4]; 1.00 mg/kg i.v.,-18.2 mm.Hg
same,dp/dt (inotropism) after,[4]; 1.00 mg/kg i.v.,4000 mm.Hg/sec
same,dp/dt (inotropism) Δ,[4]; 1.00 mg/kg i.v.,-1117 mm.Hg/sec
same,dp/dt WD,[4]; 1.00 mg/kg i.v.,8.9 min
same,heart frequency after,[4]; 1.00 mg/kg i.v.,154.0 min⁻¹
same,heart frequency Δ,[4]; 1.00 mg/kg i.v.,-1.3 min⁻¹
same,blood pressure WD,[4]; 2.50 mg/kg i.v.,6.3 min
same,blood pressure after,[4]; 2.50 mg/kg i.v.,94.3 mm.Hg
same,blood pressure Δ,[4]; 2.50 mg/kg i.v.,-26.0 mm.Hg
same,dp/dt (inotropism) after,[4]; 2.50 mg/kg i.v.,3517 mm.Hg/sec
same,dp/dt (inotropism) Δ,[4]; 2.50 mg/kg i.v.,-1266 mm.Hg/sec
same,dp/dt WD,[4]; 2.50 mg/kg i.v.,> 7.8 min
same,heart frequency after,[4]; 2.50 mg/kg i.v.,148.0 min⁻¹
same,heart frequency Δ,[4]; 2.50 mg/kg i.v.,0 min⁻¹
"CN(CC=Cc1ccccc1)[C@H]1CO[C@H]2[C@@H]1OC[C@@H]2O[N+](=O)[O-] [Example 24, 5-(N-Cinnamyl-N-methylamino)-5-desoxy-1.4;3.6-dianhydro-L-iditol 2-nitrate]",activation at 25 µg/mL,[5],200%

# Source: patent publication US4363805A, “Aminodesoxy-1.4;3.6-dianhydrohexitol nitrates and pharmaceutical composition” (Firma Willmar Schwabe, priority 1980, dated 1982)
